Where a name gives a salt, the structure may show the parent alone. Blank lines part the entries; values can stand above or below the compound they belong to.
Tests used:
Assay type in all cases: physicochemical
[1] = In vitro release of EVG, DPV and TFV from hydrophilic polyurethane tubing reservoir rings; settings: for TFV steady-state release rate: in presence of DPV or EVG
Description: Elvitegravir (EVG), TFV, and glycerol (63/5/32 wt % TFV/EVG/glycerol-water, where glycerol was premixed as a 33/2 wt % stock solution) was loaded into the lumen of 35 wt % swelling hydrophilic polyurethane single-segment tubing with 5.5 mm cross-sectional diameter and 0.7 mm wall thickness. […] Similarly, dapivirine (DPV) was formulated in various equilibrium swelling hydrophilic polyurethane tubing lumens (all with 5.5 mm cross-sectional diameter and 0.7 mm wall thickness) at 63/5/32 wt % TFV/DPV/glycerol-water (mean±SD, N=5). […] Both DPV and EVG rings described above were tested for in vitro release immediately after ring fabrication. It is known from above examples, as well as previously published work that amphiphilic and lipophilic compounds including DPV often are soluble in polyurethanes up to 20 wt %. Therefore, a ring delivering hydrophobic APIs, such as EVG or DPV, should show little or no lag time in releasing the drug after adequate storage time, since the API should partition into the tubing wall on ring storage. TFV release from HTPU 35 and 60% swelling rings was not noticeably affected by the presence of DPV and EVG (TFV steady-state release rates were approximately 13 and 22 mg/day, respectively).

[2] = In vitro release of IQP-0528 from hydrophobic tubing IVR; settings: for 30 days; core 48 wt % drug/52 wt % glycerol in Tecoflex EG85A tubing preloaded with 4.7 wt % drug
Description: An IVR as described in Examples 1, 2, 3, and 9 is manufactured by premixing hydrophobic small molecule API (such as IQP-0528, UC-781, or levonorgestrel) with non-swellable polymer (such as Tecoflex®) and titanium dioxide. The tubing is then extruded as described above using a single screw extruder and tubing crosshead. The tubing may or may not incorporate reinforced/braided tubing or metallic springs to mechanically support the wall. The tubing is then filled with the API and excipient(s) mixture and joined to make a ring as described above. […] The core is composed of 48 wt % drug and 52 wt % glycerol paste filled in a hydrophobic tubing (Tecoflex® EG85A) preloaded with 4.7 wt % drug. In this example, approximately 600 μg of IQP-0528 was released daily for 30 days.

[3] = TDF release from HydroThane IVR after storage at elevated temperature
Method: As a means of diminishing or eliminating API release lag-time, devices may be stored at elevated temperature ranging from 40° C. to 70° C., depending on drug stability, for a predetermined amount of time to accelerate diffusion of the API from the tubing lumen to the tubing wall. After a predetermined time/temperature storage, the API loading in the device wall be equilibrated and the device will show minimal or no lag-time in drug release. This approach works for APIs which show some solubility in the rate-controlling polymer. Also, in certain instances this approach may negate the need for an osmotic agent. […] The IVRs are incubated at elevated temperatures, for example 65° C. for 5 days. […] This minimal amount of TDF in tubing wall reduced the lag time for equilibrium drug release and about 2-3 mg of TDF was delivered on days 1-3.

[4] = In vitro tenofovir release from single-segment reservoir IVR (HPLC); settings: 35 wt % swelling Tecophilic HP-60D tubing IVR, TFV/glycerol 70/30 wt % core; pH 4.2 sodium acetate buffer, 37° C., 80 rpm
Method: (§1) In vitro tenofovir (TFV) release and IVR mechanical studies were conducted to evaluate device performance. IVRs were incubated in pH 4.2 sodium acetate buffer and placed in a 37° C., 80 rpm shaker for up to 120 days. Sink conditions were maintained throughout the entire experiment, and release media was changed daily. Quantification of amount of TFV released was determined using high performance liquid chromatography (HPLC) (aqueous mobile phase gradient method on reverse phase C18 column, Agilent 1200 series HPLC). Mechanical properties of the rings over time were measured by compressing rings 25% of their initial outer diameter at a rate of 1 mm/sec using an Instron 3342 mechanical testing system (Norwood, MA) with custom machined aluminum probe. The TFV release rapidly attained steady-state, and release was dependent on polymer equilibrium swelling. The 35 wt % polymer was able to maintain steady-state release through 105 days. Also, the ring mechanical properties changed little with time, even after all drug was released. (See FIG. 2.)

[5] = In vitro TFV release from IVR with drug-impregnated polymeric core; settings: HPU 60/TFV (40% w/w) core jacketed with HPU 20/TFV (5% w/w); sodium acetate buffer pH 4.2, 37° C., 77 days, after initial burst
Description: The HPU 20/TFV was used to jacket HPU 60/TFV using a twin-screw extruder and crosshead die. Reservoir rods were cut to approximately 14 cm sections, of which the ends were joined using an O-ring butt-welding clamp and medical grade Tecoflex® 1-MP fast-crystallization polyurethane adhesive, (200-300 cps viscosity, solution of polyurethane based polymer in methyl ethyl ketone and methylene chloride) resulting in a ring with 50-60 mm outer diameter and 5-6 mm outer cross-sectional diameter. […] Several of these IVRs were incubated at 37° C. and in sodium acetate buffer (pH 4.2) for 77 days. Sink conditions were maintained throughout the entire experiment. […] (See FIG. 5.)

[6] = In vitro drug release testing of dual-segment TFV/LNG IVR in aqueous buffer sink; settings: hydrophilic tubing reservoir segment of dual-segment IVR
Method: Example 29B. In a further example, a TFV/glycerol/water (65/33/2 wt %) semi-solid paste was loaded into the hydrophilic tubing reservoir segment and LNG was dissolved in the hydrophobic solid core reservoir segment of a dual segment IVR made according to Example 29A (using similar polyurethane tubing). The resulting IVR was subjected to in vitro drug release testing in an aqueous buffer sink for 90 days.

[7] = In vitro TFV release from Tecophilic HP-60D-35 IVR with or without osmotic agent glycerol
Method: as §1

SMILES: Cc1cc(C)c(Nc2ccnc(Nc3ccc(C#N)cc3)n2)c(C)c1 [DPV, dapivirine]
DPV lag time ([1]; various hydrophilic polyurethane rings, tested immediately after fabrication): approximately two weeks

SMILES: C[C@H](Cn1cnc2c(N)ncnc21)OCP(=O)(O)O [TFV, ({[(2R)-1-(6-amino-9H-purin-9-yl)propan-2-yl]oxy}methyl)phosphonic acid]
duration of maintained steady-state TFV release [4]: 105 days
TFV release profile [5]: zero-order fashion
lag period before zero-order TFV release [6]: 1 days
TFV release profile ([6]; TFV/glycerol/water 65/33/2 wt % paste, 90 days): Zero-order release
time to steady state TFV release rate ([7]; 65/33/2 wt % TFV/glycerol/water paste (glycerol 33 wt %)): ≤ 3 days
time to steady state TFV release rate ([7]; 100% TFV powder in the core): > 28 days
TFV steady-state release rate ([1]; HTPU 35% swelling rings): approximately 13 mg/day
TFV steady-state release rate ([1]; HTPU 60% swelling rings): ~22 mg/day

Next, values leading:

EVG release rate ([1]; for 28 days, unstored rings, 35 wt % swelling hydrophilic polyurethane tubing, 63/5/32 wt % TFV/EVG/glycerol-water): over 300 μg/day
EVG lag time ([1]; unstored rings, 35 wt % swelling hydrophilic polyurethane tubing): several-day lag time
SMILES: COc1cc2c(cc1Cc1cccc(Cl)c1F)c(=O)c(C(=O)O)cn2[C@H](CO)C(C)C [EVG, Elvitegravir]

IQP-0528 released daily [2]: approximately 600 μg
SMILES: Cc1cc(C)cc(C(=O)c2c(C(C)C)c(=O)[nH]c(=O)n2CC2CC2)c1 [IQP-0528]

TDF concentration in tubing wall ([3]; HydroThane 25-93A IVR, TDF + sodium chloride (15 wt % of TDF), incubated 65° C. for 5 days): 5 mg/g polymer
TDF delivered ([3]; on days 1-3, after 65° C. storage for 5 days): 2 to 3 mg
SMILES: CC(C)OC(=O)OCOP(=O)(CO[C@H](C)Cn1cnc2c(N)ncnc21)OCOC(=O)OC(C)C [TDF, tenofovir disoproxil fumarate]

From patent US20250255968A1, “INTRAVAGINAL DEVICES FOR DRUG DELIVERY” (priority 2011, published 2025)
